Data from PubChem BioAssay (NCI).
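Five concentrations, 48 hours, 96-well plates. Here, GI50 denotes the concentration required for 50% inhibition of growth. At the TGI there is no net growth.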 Where a SMILES comes first, the peptide text is derived from it. The star is where a group is joined. Fmoc = O=C(OCC1c2ccccc2-c2ccccc21)*; Boc = CC(C)(C)OC(=O)*

Columns and labels:
Assay in all cases: NCI-60 cell line screen, 48 h
A498 renal = tested on: A498 renal
A549 NSCLC = tested on: A549 NSCLC
HCT-116 colon = tested on: HCT-116 colon
HT29 colon = tested on: HT29 colon
MDA-N = tested on: MDA-N
OVCAR-5 ovarian = tested on: OVCAR-5 ovarian
RXF 393 renal = tested on: RXF 393 renal
LOX IMVI melanoma = tested on: LOX IMVI melanoma
UACC-257 melanoma = tested on: UACC-257 melanoma
SW-620 colon = tested on: SW-620 colon

Row | Structure (SMILES) | TGI (A498 renal) [µM] | TGI (A549 NSCLC) [µM] | TGI (HCT-116 colon) [µM] | TGI (HT29 colon) [µM] | TGI (MDA-N) [µM] | TGI (OVCAR-5 ovarian) [µM] | TGI (RXF 393 renal) [µM] | GI50 (LOX IMVI melanoma) [µM] | TGI (LOX IMVI melanoma) [µM] | GI50 (UACC-257 melanoma) [µM] | TGI (UACC-257 melanoma) [µM] | TGI (SW-620 colon) [µM]
1 | COC(=O)c1c(OC(C)=O)ccc2c1c1cc3ccccc3c(OC(C)=O)c1n2C | 46 | > 100 | 74 | 69.1 | > 100 | > 100 | > 100 | – | – | – | – | –
2 | CC(=O)Oc1ccc2c3c1[C@@H]1O[C@@H]1c1cccc(c1-3)[C@@H]1O[C@H]21 | 6.57 | – | 2.87 | – | 3.32 | 3.42 | 2.73 | 0.65 | 2.02 | 2.75 | > 100 | –
3 | Cc1ccc(S(=O)(=O)NC(=O)NCC(=O)O)cc1 | – | > 100 | > 100 | > 100 | > 100 | > 100 | > 100 | – | > 100 | – | > 100 | > 100
4 | C[Si](C)(C)C#CCOC=C1CC1 | – | > 100 | > 100 | > 100 | > 100 | > 100 | > 100 | – | > 100 | – | > 100 | > 100
5 | CC(=O)NC1=CC(=O)C=C(Cl)C1=O | > 100 | > 100 | > 100 | > 100 | 31 | > 100 | > 100 | – | – | – | > 100 | 37
6 | NCCSc1nc(N)c2ncn(C3OC(CO)C(O)C3O)c2n1 (configuration not stated) | > 100 | > 100 | > 100 | > 100 | – | > 100 | – | – | > 100 | – | > 100 | > 100
7 | C[C@]12CC[C@H]3[C@@H](CCC4=CC(=O)CC[C@@]43C)[C@@H]1CC[C@@H]2OC(=O)c1cccc2c(=O)c3ccccc3[nH]c12 | > 100 | > 100 | – | > 100 | > 100 | > 100 | > 100 | – | 62.1 | – | > 100 | > 100
8 | CC(C)=C=CC(C)(C)NS(=O)(=O)NC(C)(C)C=C=C(C)C | > 100 | > 100 | > 100 | > 100 | > 100 | > 100 | – | – | > 100 | – | > 100 | > 100
9 | C#CC1(O)CC(c2ccccc2)N(C)C(c2ccccc2)C1 (configuration not stated) | > 100 | > 100 | 32.4 | > 100 | – | > 100 | > 100 | – | > 100 | – | > 100 | > 100
10 | O=c1c2cc([N+](=O)[O-])cnc2sn1-c1ccc(Br)cc1 | – | > 100 | 59.3 | 79.2 | > 100 | > 100 | – | – | 52.5 | – | > 100 | > 100
11 | CCOC(=O)/C=C1\C[C@H](NC(=O)OCc2ccccc2)C(=O)N1CC(=O)OCC | > 100 | > 100 | > 100 | > 100 | > 100 | > 100 | > 100 | – | – | – | > 100 | > 100
12 | Cn1c2c(c3c(=O)[nH]ncc31)CCCc1ccccc1-2 | 57.3 | > 100 | > 100 | > 100 | – | > 100 | – | – | 46.1 | – | > 100 | > 100
13 | CCCC(=O)OC1=C(c2ccccc2)Sc2ccccc2-n2cccc21 | – | > 10 | – | > 10 | > 10 | – | > 10 | – | > 10 | – | > 10 | > 10
14 | O=C1NC(=O)C2(CCc3ccc(N(CCCl)CCCl)cc32)N1 (configuration not stated) | 33.1 | > 65 | 31.7 | 59.3 | – | 50.2 | 22.5 | – | 26.5 | – | 45.2 | 61.9
15 | CN1C(=O)C(O)C[C@@H]1c1ccc(F)cc1 (some centres not stated) | – | > 100 | > 100 | > 100 | > 100 | > 100 | > 100 | – | > 100 | – | > 100 | –
16 | O=c1[nH]c(Br)nc2c(N3CCCCC3)c[nH]c12 | > 100 | > 100 | > 100 | > 100 | – | > 100 | > 100 | – | > 100 | – | > 100 | > 100
17 | CC(C)(C)OC(=O)NCCCCC(NC(=O)C(Cc1c[nH]c2ccccc12)NC(=O)OCC1c2ccccc2-c2ccccc21)C(=O)O (configuration not stated) (Fmoc-Trp-Lys(Boc)-OH; configuration not given here) | – | > 100 | > 100 | > 100 | > 100 | > 100 | > 100 | – | 46.2 | – | > 100 | > 100
18 | COc1cc(C2SC(N)=Nc3c2c(C)nn3C(=O)c2ccc(Cl)cc2)ccc1O (configuration not stated) | – | > 10 | > 10 | > 10 | 0.406 | > 10 | > 10 | – | > 10 | – | > 10 | > 10
19 | Cc1ccc(C(=O)C(C)N)cc1C (configuration not stated) | > 100 | > 100 | > 100 | > 100 | – | – | > 100 | – | > 100 | – | > 100 | > 100
20 | CCOC(=O)c1c(CN2CCOCC2)n(Cc2ccccc2)c2c1cc(O)c1nc(C)c(C)nc12 | 55.3 | > 100 | > 100 | > 100 | > 100 | > 100 | – | – | > 100 | – | > 100 | > 100
21 | O=C(O)CCCN=C(C(=NCCCC(=O)O)c1ccccc1)c1ccccc1 | > 100 | > 100 | > 100 | – | > 100 | > 100 | > 100 | – | > 100 | – | > 100 | > 100
22 | CC(C)(C)c1cc2c(O)c(c1)COCc1cc(C(C)(C)C)cc(c1O)COCc1cc(C(C)(C)C)cc(c1O)COC2 | > 100 | > 100 | > 100 | – | – | > 100 | > 100 | – | > 100 | – | > 100 | > 100
23 | O=Cc1ccc2[nH]c(=O)oc2c1 | > 100 | – | > 100 | > 100 | > 100 | > 100 | > 100 | – | > 100 | – | > 100 | > 100
